Here are results for 57 compounds from paper PMC12040169 (PLOS Biology, 2025).

The data set in a line: in vitro. The settings on record: human, hela cells, % viability.

Each structure is given as a SMILES string.

Broadly, the viability is a read-out of living cells in per cent, often relative to untreated cells. For `Cn1cc(NC(=O)CCn2c(C(F)F)cc3cccnc32)cn1` [CBK284740], the viability at 28.5 h, 10 µM came out at 90.2%.

Turning to `COc1ccc(-c2nc(=S)c3c(n2CCCO)CCCC3)cc1` [CBK027898], the viability at 28.5 h, 10 µM stood at 88.7%.

As for `CCOC(=O)c1c(NC(=O)CC2Sc3ccccc3NC2=O)sc(C)c1C` (stereo not drawn) [CBK263349], the viability at 28.5 h, 10 µM came to 93.5%.

Turning to `CCOC(=O)c1cnn(C2CCCN(Cc3ccc(C#N)o3)C2)c1` (stereo not drawn) [CBK304045], the viability at 28.5 h, 10 µM was 116%.

For `CC1CCCCN1CC(=O)N(C)C(C)COc1ccc(Cl)cc1` (stereo not drawn) [CBK023201], the viability at 28.5 h, 10 µM amounted to 87.8%.

With `Cc1nsc(NCc2ccccc2CN2CCCC2CO)c1C#N` (stereo not drawn) [CBK304124], the viability at 28.5 h, 10 µM amounted to 88.8%.

In the case of `COc1cc(C(C)=O)ccc1OCCCN1CCC(O)(C(=O)c2ccc(F)cc2)CC1` [CBK025271C], the viability at 28.5 h, 10 µM came to 85.8%.

On to `CCCN(CCC)C(=O)c1ccc(NC(=O)CC)cc1` [CBK304391], for which the viability at 28.5 h, 10 µM was determined as 91.8%.

Turning to `CCNc1nccnc1-c1cnc(OC)nc1OC` [CBK088587], the viability at 28.5 h, 10 µM was determined as 93.9%.

Regarding `Cc1cccc(OCc2nnc(SCc3nc4ccccc4c(=O)[nH]3)o2)c1` [CBK269030], the viability at 28.5 h, 10 µM was 98.7%.

Take `O=C(Nc1ccn(C23CC4CC(CC(C4)C2)C3)n1)c1ccco1` [CBK288023]: the viability at 28.5 h, 10 µM came out at 106%.

As for `COCCn1c(SCc2nc3ccccc3nc2C)nc(C)c1C` [CBK305651], the viability at 28.5 h, 10 µM was determined as 106%.

With `O=C(Cn1cnc2c(cnn2-c2ccc(F)cc2)c1=O)NCc1ccccc1` [CBK287538], the viability at 28.5 h, 10 µM was 93.1%.

Take `O=[N+]([O-])c1cccc(S(=O)(=O)NCCOc2cccc3cccnc23)c1` [CBK268489]: the viability at 28.5 h, 10 µM came to 98.6%.

Regarding `CCn1cc(NC(=O)CCn2c(C(F)F)cc3cccnc32)cn1` [CBK282769], the viability at 28.5 h, 10 µM was 97.1%.

Regarding `Cc1ccc(Cn2ncc3c(C(=O)N4CCC(N(C)S(C)(=O)=O)CC4)cc(C)nc32)cc1` [CBK298280], the viability at 28.5 h, 10 µM is 102%.

Regarding `O=[N+]([O-])c1ccc(/C=N/C23CN4CN(CN(C4)C2)C3)s1` [CBK261752], the viability at 28.5 h, 10 µM came out at 105%.

As to `Cc1cc2n(n1)[C@@H](C(F)F)C[C@@H](C1CCCN(C(=O)C3CC3)C1)N2` (stereo partly drawn) [CBK284723], the viability at 28.5 h, 10 µM worked out at 98.7%.

For the compound `CCOC(=O)C1(C2CCCCC2)CCN(C(=O)C2COc3ccccc3O2)CC1` (stereo not drawn) [CBK136925], the viability at 28.5 h, 10 µM stood at 101%.

Turning to `NCCNc1ccc(C(=O)Nc2cccc(Cl)c2)cc1[N+](=O)[O-]` [CBK263953], the viability at 28.5 h, 10 µM is 85.3%.

For the compound `CC(C)(C)c1nnc2sc(-c3cccnc3)nn12` [CBK287289], the viability at 28.5 h, 10 µM is 112%.

As for `O=C(O)c1ccc(NS(=O)(=O)c2ccc(NC(=O)c3ccccc3Cl)cc2)cc1` [CBK265184], the viability at 28.5 h, 10 µM is 93%.

With `OC1CCC(Nc2cncc(-c3ccc4ccccc4c3)n2)CC1` (stereo not drawn) [CBK065463], the viability at 28.5 h, 10 µM came out at 91.7%.

For the compound `Fc1ccc(Oc2nccnc2N2CCN(Cc3ccccc3F)CC2)cc1` [CBK083009T], the viability at 28.5 h, 10 µM came to 91.8%.

Consider `COc1ccc(CCNC(=O)Cn2ccc(C3CCCNC3)n2)cc1` (stereo not drawn) [CBK304444], for which the viability at 28.5 h, 10 µM worked out at 76.3%.

For the compound `Cc1cc(Cl)ccc1NC(=S)NCCc1ccc(S(N)(=O)=O)cc1` [CBK264888], the viability at 28.5 h, 10 µM was found to be 88.5%.

`COC(=O)CN1N=C(C(C)(C)C)Cn2c(cc3sccc32)C1=O` [CBK284177]: the viability at 28.5 h, 10 µM came out at 83.3%.

In the case of `CCCCNc1cc(N2CCOC(c3cnn(CC)c3)C2)nc(N)n1` (stereo not drawn) [CBK305423], the viability at 28.5 h, 10 µM was found to be 93.8%.

Turning to `O=S(=O)(Nc1nc(-c2c(F)cccc2Cl)cs1)c1cc(Cl)c(Cl)s1` [CBK200025], the viability at 28.5 h, 10 µM is 92.8%.

Take `O=S(=O)(Nc1ccc(N2CCNCC2)nc1)c1ccc(F)cc1F` [CBK000022C]: the viability at 28.5 h, 10 µM was found to be 110%.

Regarding `C=CCN(c1ccccc1)S(=O)(=O)c1ccc(Br)cc1CC` [CBK038344], the viability at 28.5 h, 10 µM was determined as 95.8%.

Turning to `Cc1c(C(=O)O)c(-c2ccc(Cl)cc2)cn1CCO` [CBK286959], the viability at 28.5 h, 10 µM came to 87%.

Turning to `CN(Cc1ccccc1N1CCOCC1)C(=O)c1ccc2ncsc2c1` [CBK296692], the viability at 28.5 h, 10 µM was determined as 108%.

For `COC(=O)c1ccc(CN2CCC(Oc3nccnc3OCc3ccc(Cl)c(Cl)c3)CC2)o1` [CBK153782], the viability at 28.5 h, 10 µM was determined as 84.2%.

With `Brc1cncc2c1ccn2CCN1CCOCC1` [CBK083479], the viability at 28.5 h, 10 µM came out at 87.1%.

Consider `COc1ccccc1NC(=O)CSc1nc(O)c2c(C)cc(C)nc2n1` [CBK266095], for which the viability at 28.5 h, 10 µM came to 91.8%.

On to `FC(F)(F)c1ccc(CN2CCN(c3nccnc3OCCN3CCOCC3)CC2)cc1` [CBK082890T], for which the viability at 28.5 h, 10 µM is 90.8%.

In the case of `CC(=O)Nc1ccc(CN2CCCC(c3cc4ncccc4[nH]3)C2)cc1` (stereo not drawn) [CBK283402], the viability at 28.5 h, 10 µM was 92.4%.

Turning to `Oc1ccc(-n2ncc(-c3ccc(F)cc3F)n2)cc1` [CBK112736], the viability at 28.5 h, 10 µM stood at 98%.

In the case of `COc1nccnc1OC1CCN(CCc2c[nH]c3ccccc23)CC1` [CBK084261], the viability at 28.5 h, 10 µM is 93.6%.

For the compound `CN(C)CCN1C(=O)C(O)=C(C(=O)c2ccco2)C1c1ccc([N+](=O)[O-])cc1` (stereo not drawn) [CBK264486], the viability at 28.5 h, 10 µM was 109%.

In the case of `CCc1nc2ccccc2n1C1CCN(C(=O)Cc2cccnc2)CC1` [CBK306389], the viability at 28.5 h, 10 µM stood at 100%.

With `Cn1c(COc2ccccc2)nnc1SCC(=O)c1ccc(-c2ccccc2)cc1` [CBK267426], the viability at 28.5 h, 10 µM stood at 87.9%.

Take `CC(=O)c1ccc(NC(=O)NC[C@H]2C[C@@H]3CC[N@]2C[C@@H]3CN2CCN(C)CC2)cc1` [CBK288768]: the viability at 28.5 h, 10 µM is 116%.

For the compound `Cn1ccnc1C(NC(=O)N1CCCC1)c1ccc(F)c(F)c1` (stereo not drawn) [CBK283782], the viability at 28.5 h, 10 µM was determined as 89%.

For the compound `O=C(CN1CCOCC1)Nc1sc2c(c1C(=O)Nc1ccc(Br)cc1)CCC2` [CBK265073], the viability at 28.5 h, 10 µM amounted to 111%.

On to `O=C(NCC1(O)CCSC1)c1c[nH]nc1-c1cc2ccccc2o1` (stereo not drawn) [CBK306159], for which the viability at 28.5 h, 10 µM was found to be 88.3%.

For `CN(C)C(=O)c1ccc(-c2ccc3c(c2)COC(C2CCN(C(=O)CC(C)(C)c4ccccc4)CC2)O3)cc1` (stereo not drawn) [CBK149765], the viability at 28.5 h, 10 µM came to 107%.

Consider `CC1CC(C)CN(C(=O)CN2C(=O)N3CCN=C3c3ccccc32)C1` (stereo not drawn) [CBK283960], for which the viability at 28.5 h, 10 µM is 90%.

For the compound `Cc1cccc(C)c1OCCOCC(O)CN1CCN(C)CC1` (stereo not drawn) [CBK278206C], the viability at 28.5 h, 10 µM amounted to 90.4%.

`CC(C)(C)OC(=O)N1CCC(c2cc(=O)n3c(n2)CCCCC3)C1` (stereo not drawn) [CBK283415]: the viability at 28.5 h, 10 µM was found to be 88.4%.

In the case of `Cc1ccc(N2C(=O)/C(=C/c3ccc(O)c(O)c3)SC2=S)cc1C` [CBK262756], the viability at 28.5 h, 10 µM amounted to 76.8%.

Take `COc1c(Br)cc(/C=C2\SC(=O)NC2=O)cc1Br` [CBK102455]: the viability at 28.5 h, 10 µM turned out to be 101%.

`COc1cc(OC)nc(C(NC(=O)C2CCN(C(=O)c3ccccc3)CC2)c2ccccc2)n1` (stereo not drawn) [CBK059650]: the viability at 28.5 h, 10 µM is 99.7%.

With `O=C(CSCc1ccccc1Cl)NNC(=O)c1cccnc1` [CBK267826], the viability at 28.5 h, 10 µM was 113%.

Consider `O=C(O)c1[nH]c2ccccc2c1C(c1ccc(OC2CCCC2)cc1)c1c(C(=O)O)[nH]c2ccccc12` [CBK267789], for which the viability at 28.5 h, 10 µM is 85.9%.

Regarding `O=C(O)CCC(=O)Nc1cccc(C(=O)Nc2cccc(Cl)c2)c1` [CBK296977], the viability at 28.5 h, 10 µM amounted to 89.8%.
